Counter-ions that a name gives are not always drawn.
Key:
[1] = test system: ulcers; test: gastrolesivity, ulcers after oral administration in the rat; type: in vivo; conditions: equimolar doses
Text: (§1) Other toxicological features of the compound 5 have been also studied, more particularly the histolesivity (intramuscular injection in the sacrospinalis muscle of rabbit) and the gastrolesivity (ulcers after oral administration in the rat).

[2] = plasma levels of diflunisal after oral administration in the rat (pharmacokinetics); type: in vivo; conditions: 40 umol/kg, oral dose 0.04 mmol/kg
Text: Lastly, some pharmacokinetic properties of the compound 5 have been investigated, by measuring the plasma levels of diflunisal after oral administration of 0.04 mmol/kg p.o. in the rat, this dose being close to the therapeutical one. [table]

[3] = test system: sacrospinalis muscle; test: histolesivity, intramuscular injection in the sacrospinalis muscle of rabbit; type: in vivo; conditions: equimolar doses
Text: as §1

[4] = test system: carrageen induced paw oedema; test: carrageen induced paw oedema in the rat (anti-inflammatory activity); type: in vivo; conditions: administered 1h before the carrageen, 10 animals
Text: (§2) The pharmaco-toxicological properties of the compounds '1 have been studied in comparison with diflunisal and with N-acetylcysteine, in order to evaluate the pharmacological and toxicological properties of the compounds of the invention with respect to those of the starting compounds. The results relating to the compound 5 (see scheme I) are hereinafter reported, only for illustrative and not for limiting purpose.

[5] = test system: phenylquinone induced writhing; test: phenylquinone induced writhing in the mouse (analgesic activity); type: in vivo; conditions: 10 animals
Text: as §2

[6] = water solubility (observation at preparation); type: physicochemical
Protocol: 3.95 g of S-[2',4'-difluoro-4-hydroxy-(1,1'-diphenyl)-3-carbonyl]-N-acetyl-L-cysteine (5) are added with 2.92 g of lysine base as a 50% aqueous solution, 8 ml of water and 20 ml of acetone; the mixture is stirred until a clear solution is obtained and filtered. Under stirring the mixture is diluted up to 100 ml with acetone, cooled to -10°C for a night, filtered and dried in a stove at 50-60°C under vacuum. A white, water soluble product is obtained having melting point of 179-184°C, with a yield of 92%.

| Cmax [2] [ng/mL] | AUC(0-inf) ([2]; read-out: o → oo) [µg·h/mL] | Tmax ([2]; read-out: tC max) [h] | half-life ([2]; read-out: t½ (converted)) [h] | histolesivity [3] | solubility in water [6] | SMILES | gastrolesivity [1] | INIBITION % (medium value ± s.e.) anti-inflammatory activity (a) ([4]; 0.040 mmol kg^-1 p.o.) [%] | INIBITION % (medium value ± s.e.) anti-inflammatory activity (a) ([4]; 0.120 mmol kg^-1 p.o.) [%] | INIBITION % (medium value ± s.e.) anti-inflammatory activity (a) ([4]; 0.400 mmol kg^-1 p.o.) [%] | INIBITION % (medium value ± s.e.) analgesic activity (b) ([5]; 0.040 mmol kg^-1 p.o.) [%] | INIBITION % (medium value ± s.e.) analgesic activity (b) ([5]; 0.120 mmol kg^-1 p.o.) [%] | INIBITION % (medium value ± s.e.) analgesic activity (b) ([5]; 0.400 mmol kg^-1 p.o.) [%] |
| --- | --- | --- | --- | --- | --- | --- | --- | --- | --- | --- | --- | --- | --- |
| 39700 | 345 | 3 | 4.2 | high | – | O=C(O)c1cc(-c2ccc(F)cc2F)ccc1O [Diflunisal, 2',4'-difluoro-4-hydroxy-(1,1'-diphenyl)-3-carboxylic acid] | high | 29.6 ± 5.4 | 50.3 ± 2.0 | 53.9 ± 4.7 | 9.5 ± 6.2 | 16.6 ± 15.9 | 39.6 ± 9.8 |
| – | – | – | – | – | water soluble | CC(=O)N[C@@H](CSC(=O)c1cc(-c2ccc(F)cc2F)ccc1O)C(=O)O [Example 8, S-/ 2',4'-difluoro-4-hydroxy-(1,1'-diphenyl)-3-carbonyl]-N-acetyl-L-cysteine lysine salt] | – | – | – | – | – | – | – |
